Marks after values point to notes of the source that are not given here.
Tests used:
[1] = tested on: Calu-6 lung subcutaneous flank xenografts; test: Calu-6 flank xenograft model; assay type: in vivo, male nude mice; details: q.d x1; for Tumor Volume Day 38: mean ± SEM; for % ILS: median, time to 1 cc vs vehicle; for % T/C Day 38: treated vs vehicle
Experimental: (§1) Efficacy of N-[2-[(4-hydroxyphenyl)amino]-3-pyridyl]-4-methoxybenzenesulfonamide was tested in Calu-6 NSCL, MDA-MB-468 breast and HT-29 colon carcinoma xenografts grown in nude mice. The objectives were determination of the efficacy of N-[2-[(4-hydroxyphenyl)amino]-3-pyridyl]-4-methoxybenzenesulfonamide as a single agent and in combination with cisplatin in the Calu-6 NSCL flank xenograft model; determination the efficacy of N-[2-[(4-hydroxyphenyl)amino]-3-pyridyl]-4-methoxybenzenesulfonamide as a single agent and in combination with docetaxel in the MDA-MB 468 breast flank xenograft model; determination of the efficacy of N-[2-[(4-hydroxyphenyl)amino]-3-pyridyl]-4-methoxybenzenesulfonamide as a single agent and in combination with 5-FU in the HT-29 colon flank xenograft model; and comparison the efficacy of N-[2-[(4-hydroxyphenyl)amino]-3-pyridyl]-4-methoxybenzenesulfonamide administered on 2 different schedules (q.d. vs b.i.d.) in the Calu-6 and HT-29 xenogaft model.
(§2) Following inoculation of tumor cells, tumors were passaged three times in mice before using the fragments to generate single cell suspensions. Multiple animals were used as donors. Single cell suspensions were generated by homogenizing the minced tumor tissue in RPMI 1640 media. Cell suspensions were washed three times to remove debris and other foreign materials. Viable cells were counted by trypan blue exclusion technique using a hemocytometer. Mice were injected subcutaneously with 0.5 ml of the cell suspension containing 1×10^6 cells.
Tumor cells were inoculated s.c. into male nude mice on day 0. On day 10, mice bearing established tumors were size matched at ˜233 mm^3 and placed into the following groups:
(§3) N-[2-[(4-hydroxyphenyl)amino]-3-pyridyl]-4-methoxybenzenesulfonamide—100, and 75 mg/kg/day (p.o., q.d., 5 days on, 5 days off ×2)
N-[2-[(4-hydroxyphenyl)amino]-3-pyridyl]-4-methoxybenzenesulfonamide—50 and 0 mg/kg/day (p.o., q.d. ×21 or p.o., b.i.d. ×21)
Cisplaitn—20, 10, 8 and 0 mg/kg/day (ip, qd ×1)
Combination Therapy—100/10, 75/10, 100/8 mg/kg/day (p.o., q.d., 5 days on, 5 days off ×2/ip, qd ×1), 50/10 mg/kg/day (p.o., q.d., ×21/ ip, qd ×1)

[2] = tested on: MDA-MB-468 breast subcutaneous flank xenografts; test: MDA-MB-468 breast flank xenograft model; assay type: in vivo, female nude mice; details: q.d x1; for Tumor Volume Day 38: mean ± SEM; for % ILS: median, time to 1 cc vs vehicle; for % T/C Day 38: treated vs vehicle
Experimental: as §1, §2
Efficacy of N-[2-[(4-hydroxyphenyl)amino]-3-pyridyl]-4-methoxybenzenesulfonamide in the MDA-MB-468 Breast Flank Xenograft Model. Tumor cells derived from serially passaged tumor fragments were inoculated s.c. in female nude mice on day 0. On day 10, mice bearing established tumors were size matched at ˜231 mm^3 and placed into the following groups:
as §3
N-[2-[(4-hydroxyphenyl)amino]-3-pyridyl]-4-methoxybenzenesulfonamide—50 and 0 mg/kg/day (p.o., q.d. ×21)
Docetaxel—40, 33.3, 16.7 and 0 mg/kg/day (i.v., qd ×1)

[3] = tested on: HT-29 colon subcutaneous flank xenografts; test: HT-29 flank xenograft model; assay type: in vivo, nude mice; details: q.d x5; for Tumor Volume Day 38: mean ± SEM; for % ILS: median, time to 1 cc vs vehicle; for % T/C Day 38: treated vs vehicle
Experimental: as §1, §2
Tumor cells derived from serially passaged tumor fragments were inoculated s.c. in female nude mice on day 0. On day 10, mice bearing established tumors were size matched at ˜236 mm^3 and placed into the following groups:
1. N-[2-[(4-hydroxyphenyl)amino]-3-pyridyl]-4-methoxybenzenesulfonamide—100, and 75 mg/kg/day (p.o., q.d., 5 days on, 5 days off ×2)
2. N-[2-[(4-hydroxyphenyl)amino]-3-pyridyl]-4-methoxybenzenesulfonamide—50 and 0 mg/kg/day (p.o., q.d. ×21 or p.o., b.i.d. ×21)
Combination Therapy—100/30, 75/30, mg/kg/day (p.o., q.d., 5 days on, 5 days off ×2/ip, qd ×1), 50/10 mg/kg/day (p.o., q.d., ×21/ip, qd ×1).

Compound: N.N.[Cl][Pt][Cl] [Cisplatin, cisplatin, reference compound]
- Tumor Volume Day 38 ([1]; 8 mg/kg/day i.p.): 1649 ± 67 mm^3
- % ILS ([1]; 8 mg/kg/day i.p.): 29*** %
- % T/C Day 38 ([1]; 8 mg/kg/day i.p.): 63*** %
- Tumor Volume Day 38 ([1]; 10 mg/kg/day i.p.): 914 ± 49 mm^3
- % ILS ([1]; 10 mg/kg/day i.p.): 71*** %
- % T/C Day 38 ([1]; 10 mg/kg/day i.p.): 35*** %
- Tumor Volume Day 38 ([1]; 20 mg/kg/day i.p.): 1472 ± 75 mm^3
- % ILS ([1]; 20 mg/kg/day i.p.): 58*** %
- % T/C Day 38 ([1]; 20 mg/kg/day i.p.): 56*** %

Compound: CC(=O)O[C@@]12CO[C@@H]1C[C@H](O)[C@@]1(C)C(=O)[C@H](O)C3=C(C)[C@@H](OC(=O)[C@H](O)[C@@H](NC(=O)OC(C)(C)C)c4ccccc4)C[C@@](O)([C@@H](OC(=O)c4ccccc4)[C@H]21)C3(C)C [Docetaxel, docetaxel, reference compound]
- Tumor Volume Day 38 ([2]; 16.7 mg/kg/day i.v.): 1909 ± 101 mm^3
- % ILS ([2]; 16.7 mg/kg/day i.v.): 26*** %
- % T/C Day 38 ([2]; 16.7 mg/kg/day i.v.): 68*** %
- Tumor Volume Day 38 ([2]; 33.3 mg/kg/day i.v.): 551 ± 31 mm^3
- % ILS ([2]; 33.3 mg/kg/day i.v.): 67*** %
- % T/C Day 38 ([2]; 33.3 mg/kg/day i.v.): 19*** %
- Tumor Volume Day 38 ([2]; 40 mg/kg/day i.v.): 1008 ± 58 mm^3
- % ILS ([2]; 40 mg/kg/day i.v.): 52*** %
- % T/C Day 38 ([2]; 40 mg/kg/day i.v.): 36*** %

Compound: O=c1[nH]cc(F)c(=O)[nH]1 [5-FU, 5-fluorouracil, reference compound]
- Tumor Volume Day 38 ([3]; 20 mg/kg/day i.p.): 1413 ± 80 mm^3
- % ILS ([3]; 20 mg/kg/day i.p.): 25*** %
- % T/C Day 38 ([3]; 20 mg/kg/day i.p.): 59*** %
- Tumor Volume Day 38 ([3]; 30 mg/kg/day i.p.): 525 ± 35 mm^3
- % ILS ([3]; 30 mg/kg/day i.p.): 75*** %
- % T/C Day 38 ([3]; 30 mg/kg/day i.p.): 22*** %
- Tumor Volume Day 38 ([3]; 40 mg/kg/day i.p.): 973 ± 45 mm^3
- % ILS ([3]; 40 mg/kg/day i.p.): 50*** %
- % T/C Day 38 ([3]; 40 mg/kg/day i.p.): 41*** %

— patent US20040242650A1, “Extended dosing regimen” (priority 2003, published 2004)
